Results from patent US20230130513A1, “Magnetic-Responsive Photosensitizer Nanoplatform and Uses Thereof” (University of Maryland, Baltimore, priority 2021, published 2023).

Tests used:
pH measurement = assay type: physicochemical; conditions: room temperature
Experimental: (§1) Three microemulsions were selected for further investigations (1, 2.5, and 5 wt. %). Microemulsions were tested for thermodynamic stability via centrifugation stress at 5,000 rpm for 2 h at 4° C., and freeze-thaw stress consisting of three complete cycles. Each cycle consisted of placing the microemulsion for 24 h at −20° C. followed by another 24 h at 4° C. […] For long-term stability, microemulsions were kept in the dark at room temperature and then examined at 1, 3, and 6 months for physical changes or phase separation (21,22). The pH of the synthesized microemulsions was tested using a digital pH meter (accuracy±5%; Accumet XL25, Thermo Fisher Scientific, Waltham, Mass., USA). Before the pH measurement, the pH meter was calibrated using commercial standard buffer solutions of pH 4, pH 7, and pH 10 at room temperature. For the absorbance evaluation, the upper third of the synthesized microemulsions was investigated over time using ultraviolet-visible optical absorption spectrometry (SpectraMax M5, Molecular Devices, Sunnyvale, Calif., USA). […] The density of each microemulsion was calculated following the equation: […]

[1] = tested on: Human gingival fibroblasts
Experimental: Human gingival fibroblasts (HGF, ScienCell, San Diego, Calif., USA) were cultured using fibroblast medium (FM) supplemented with 2% fetal bovine serum, 1% fibroblast growth supplement, 100 IU/mL penicillin, and 100 IU/mL streptomycin (18 76). When the viability of the cells was above 90%, the cells were seeded in the wells of a 96-well plate (5,000 cells per well) and incubated for 24 h. In the following day, the medium was removed, and different concentrations of superparamagnetic iron(II) oxide nanoparticles (0.25, 0.5, 1, 1.5, 2, 2.5, and 5 wt. %) nanoparticles with and without 100 μg/mL of TBO photosensitizer were dissolved in the fibroblast medium and incubated in contact with the cells for 24 h. The synthesized microemulsions containing the different concentrations of superparamagnetic iron(II) oxide nanoparticles (0.25, 0.5, 1, 1.5, 2, 2.5, and 5 wt. %) were also tested. All the microemulsions were diluted with the fibroblast medium at a 1:1 ratio. After 24 h of incubation at 37° C. with 5% CO2, the cells were washed with phosphate-buffered saline (PBS), and cell counting Kit-8 (CCK-8, Dojindo, Rockville, Md., USA) was used to evaluate the cell viability. The absorbance was read at 450 nm using a spectrophotometer (SpectraMax M5, Molecular Devices, Sunnyvale, Calif., USA). For the live/dead assay, the fibroblast cells were seeded in the wells of a 24-well plate (40,000 cells per well). The medium was changed daily to allow the viability to be above 90%. Microemulsions containing 5 and 2.5% were added to a fresh culture medium at the ratio of 1:1 and incubated with the cells for one day. Wells treated with TBO alone or with no treatment were used as controls. After one day of incubation, the old medium was removed, cells were washed with PBS, and LIVE/DEAD™ Cell Imaging Kit (Invitrogen, Frederick, Md., USA) was used to stain the cells. The cells were visualized using an inverted epifluorescence microscope (Eclipse TE2000-S, Nikon, Melville, N.Y., USA).

Density of microemulsion = assay type: physicochemical
[2] = tested on: mouse monocyte-macrophage cells; conditions: cited from earlier work
S. mutans UA159 biofilms = assay: Photodynamic treatment against Streptococcus mutans biofilms (CFU); assay type: cell-based; conditions: for antibacterial effect of core components on S. mutans biofilm: components alone, diluted to their concentration in the microemulsion (FIG. 5A)
Experimental: Photodynamic Treatment Via MagTBO Against Streptococcus mutans Biofilms S. mutans UA159 obtained from the American Type Culture Collection (ATCC, Manassas, Va., USA) were grown overnight using brain heart infusion (BHI) broth (Sigma-Aldrich, St. Louis, Mo., USA) at 37° C. and 5% CO2 incubator. The optical density of the S. mutans was modified to 1×10^8 colony-forming units (CFU)/mL (OD600=0.9) and diluted 1:20 with BHI broth supplemented with 2% of sucrose (12). 200 μL of the diluted overnight culture was placed inside the wells of a black 96-well plate for 24 h. The media was changed after 24 h and 48 h of biofilm growth was continued. The biofilm was washed with 0.9% saline and irradiated with 100 μg/mL of TBO and MagTBO microemulsions containing 1, 2.5, and 5% of SPIONs with and without magnetic field (neodymium magnet, 0.4 Tesla; pull force=601b5). The TBO or the microemulsions were left for 1 min and then irradiated for 5 minutes to deliver an energy density of 180 J/cm^2 and light intensity of 180 mW. The magnetic field was applied at a 10 mm distance below the biofilm during the entire period of the incubation and irradiation times (FIG. 1C). Untreated wells and wells treated with glycerol, essential oil, and polysorbate 20 were used as controls. After each treatment, the biofilms were washed by placing 200 μL of 0.9% saline inside the well, and then, the 0.9% saline was gently aspirated. Next, another 200 μL of saline was placed inside the well, and the biofilm was gently scraped to remove the biofilm cells (23). Then, the biofilm cells were resuspended with the saline to perform serial dilutions (1:10, 1:100, 1:1000, 1:10 000, and 1:100 000) using BHI agar. The BHI agar plates were incubated for 48 h at 37° C. in a 5% CO2 incubator and then counted using a colony counter. Considering the dilution factor, the CFUs/mL were calculated and estimated to measure the number of colonies per milliliter. Two wells were randomly selected for Live/Dead staining of the biofilms to be washed with 0.9% saline and then stained with the BacLight live/dead kit (Molecular Probes, Eugene, Oreg.).

[3] = tested on: Human gingival fibroblasts; assay: Live/dead assay of fibroblast cells; assay type: cell-based; conditions: one day incubation; microemulsions 1:1 with medium
Experimental: Human gingival fibroblasts (HGF, ScienCell, San Diego, Calif., USA) were cultured using fibroblast medium (FM) supplemented with 2% fetal bovine serum, 1% fibroblast growth supplement, 100 IU/mL penicillin, and 100 IU/mL streptomycin (18 76). When the viability of the cells was above 90%, the cells were seeded in the wells of a 96-well plate (5,000 cells per well) and incubated for 24 h. In the following day, the medium was removed, and different concentrations of superparamagnetic iron(II) oxide nanoparticles (0.25, 0.5, 1, 1.5, 2, 2.5, and 5 wt. %) nanoparticles with and without 100 μg/mL of TBO photosensitizer were dissolved in the fibroblast medium and incubated in contact with the cells for 24 h. The synthesized microemulsions containing the different concentrations of superparamagnetic iron(II) oxide nanoparticles (0.25, 0.5, 1, 1.5, 2, 2.5, and 5 wt. %) were also tested. All the microemulsions were diluted with the fibroblast medium at a 1:1 ratio. After 24 h of incubation at 37° C. with 5% CO2, the cells were washed with phosphate-buffered saline (PBS), and cell counting Kit-8 (CCK-8, Dojindo, Rockville, Md., USA) was used to evaluate the cell viability. The absorbance was read at 450 nm using a spectrophotometer (SpectraMax M5, Molecular Devices, Sunnyvale, Calif., USA). […]

S. mutans biofilms = assay: Live/Dead staining of S. mutans biofilms; assay type: cell-based, Streptococcus mutans; conditions: aPDT, no magnetic field
Experimental: After each treatment, the biofilms were washed by placing 200 μL of 0.9% saline inside the well, and then, the 0.9% saline was gently aspirated. Next, another 200 μL of saline was placed inside the well, and the biofilm was gently scraped to remove the biofilm cells (23). Then, the biofilm cells were resuspended with the saline to perform serial dilutions (1:10, 1:100, 1:1000, 1:10 000, and 1:100 000) using BHI agar. The BHI agar plates were incubated for 48 h at 37° C. in a 5% CO2 incubator and then counted using a colony counter. Considering the dilution factor, the CFUs/mL were calculated and estimated to measure the number of colonies per milliliter. Two wells were randomly selected for Live/Dead staining of the biofilms to be washed with 0.9% saline and then stained with the BacLight live/dead kit (Molecular Probes, Eugene, Oreg.).

[4] = Absorbance change over time (UV-visible spectrometry); assay type: physicochemical
Experimental: as §1

[5] = tested on: saliva-derived multispecies biofilms; assay: Photodynamic treatment against saliva-derived biofilms (CFU); assay type: cell-based; conditions: 7-day biofilm on dentin slabs, aPDT, no magnetic field, vs control
Experimental: Photodynamic Treatment with MagTBO Against Saliva-Derived Biofilms
Saliva samples were collected from ten healthy individuals with no active carious lesions or history of antibiotics in the last three months. The participants were instructed not to brush their teeth 24 h and not eat or drink two h before the collection. The collected saliva samples were mixed to create a homogenous and complex bacterial composition. The use of saliva as inoculum was approved by the University of Maryland Baltimore Institutional Review Board (HP-00050407). The collected saliva was mixed with glycerol (70:30) and stored at −80° C. This model was used in previous studies to form thick and mature multispecies biofilm (24-26).
Dentin slabs (6×6×1 mm) were used as substrates to grow the biofilm (FIG. 8A). The slabs were prepared from radicular dentin of extracted teeth using a diamond saw with water as coolant (Isomet, Buehler, Lake Bluff, Ill., USA). The collection and the use of extracted teeth were approved by the University of Maryland Baltimore Institutional Review Board. […] The microhardness of the slabs was measured via Vicker's indentation (HMV II, Shimadzu Corporation, Kyoto, Japan) by calculating the average of five different indentations (25 g load for 10 s) per slab (27). […]

Molecule	pH Measurement (pH measurement)	percentage of fibroblast viability ([1]; TBO alone, 100 μg/mL, 24 h) [%]	cytotoxicity against fibroblasts (in words) ([1]; compared to the control)	Density (Density of microemulsion) [g/mL]	toxicity against macrophage cells ([2]; 100 μg/mL TBO, previous report (12))	cytotoxicity against macrophage cell line ([2]; concentrations higher than 100 μg/mL, reported (12))	reduction against the S. mutans biofilm (CFU) (S. mutans UA159 biofilms; aPDT with light activation 180 J/cm2, no magnetic field, vs control (FIG. 5C)) [log]	antibacterial effect on S. mutans biofilm (S. mutans UA159 biofilms; incubated for 5 min without light activation (FIG. 5B))	viable cells in live/dead images [3]	viable microorganisms in live/dead images (S. mutans biofilms)	Absorbance change (%) ([4]; 1-Month)	Absorbance change (%) ([4]; 3-Month)	Absorbance change (%) ([4]; 6-Month)	reduction of multispecies biofilm CFU (total microorganisms, total streptococci, mutans streptococci, total lactobacilli) [5]	antibacterial effect of core components on S. mutans biofilm (S. mutans UA159 biofilms)	cytotoxicity of the microemulsion components (in words) ([1]; added to fibroblast media in a ratio similar to their proportion in the microemulsion)
Cc1cc2nc3ccc(N(C)C)cc3[s+]c2cc1N.[Cl-] [TBO, toluidine blue O]	3.19 ± 0.05	33.4	significant toxicity	1	did not induce significant toxicity	critical cytotoxicity	3	No antibacterial effect	significantly reduced viability	significant reduction in the viable microorganisms	No change	No change	No change	around 1 log	–	–
OCC(O)CO [glycerol]	–	–	–	–	–	–	–	–	–	–	–	–	–	–	None of the components were associated with any antibacterial effect	–
polysorbate 20	–	–	–	–	–	–	–	–	–	–	–	–	–	–	None of the components were associated with any antibacterial effect	significant cytotoxicity
